pIC50: −log10 of the molar value.
Each compound was assayed against T1, human KCNK13 (Homo sapiens, UniProt Q9HB14) (assay: KCNK13 antagonist activity, thallium (Tl+) flux FLIPR assay). Conditions: not given.
T1 construct: expressed in transfected cells
T1 sequence (Q9HB14 1-408): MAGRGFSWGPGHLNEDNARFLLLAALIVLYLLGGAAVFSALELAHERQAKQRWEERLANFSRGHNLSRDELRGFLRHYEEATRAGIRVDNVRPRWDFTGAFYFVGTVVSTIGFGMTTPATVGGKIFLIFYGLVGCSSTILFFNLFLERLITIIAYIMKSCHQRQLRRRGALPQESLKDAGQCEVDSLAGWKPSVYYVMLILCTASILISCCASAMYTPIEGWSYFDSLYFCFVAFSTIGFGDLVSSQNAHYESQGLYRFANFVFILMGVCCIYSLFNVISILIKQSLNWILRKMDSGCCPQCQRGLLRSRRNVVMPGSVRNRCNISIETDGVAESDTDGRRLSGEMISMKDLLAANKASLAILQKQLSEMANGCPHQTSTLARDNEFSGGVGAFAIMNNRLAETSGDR
Format: cell-based
Protocol: KCNK13 antagonist activity was determined by measuring changes in intracellular Thallium (Tl^+) concentrations using a Tl^+ sensitive fluorescent dye. The changes in fluorescent signal were monitored by Fluorescent Imaging Plate Reader (FLIPR™) technology available from Molecular Devices, LLC, US. KCNK13 mediated increases in intracellular Tl+concentration were readily detected by addition of a thallium sulfate stimulus. 24 hours prior to the assay, human embryonic kidney 293 cells (HEK 293 cells) stably expressing human KCNK13 were seeded in cell culture medium in PDL coated black, clear-bottom 384-well plates (commercially available from Corning Inc., 356663) and grown overnight at 37° C., 5% CO2. On the day of the assay, cell culture media was removed and cells were loaded with potassium dye (commercially sold by Molecular Devices, LLC, US, R8222) for 1 hour at room temperature in the dark. Test compounds (at 10 point half log concentration response curves from […]) were added to cells for 15 minutes prior to the addition of thallium sulfate to all wells. The IC50 values were determined from ten point concentration response curves. Curves were generated using the average of two wells for each data point.
`Nc1nonc1-c1nc2ncc(F)cc2n1Cc1ccc(Cl)nc1` [Example 159, 4-(1-((6-chloropyridin-3-yl)methyl)-6-fluoro-1H-imidazo[4,5-b]pyridin-2-yl)-1,2,5-oxadiazol-3-amine] gave a pIC50 of over 7.30.
With `Cc1nonc1-c1nc2c(F)cccc2n1Cc1ccc(Cl)nc1` [Example 39, 3-[1-[(6-chloropyridin-3-yl)methyl]-4-fluoro-benzimidazol-2-yl]-4-methyl-1,2,5-oxadiazole] the pIC50 was over 6.70.

Same assay, conditions: HEK 293 cells stably expressing human KCNK13; Tl+ sensitive dye, FLIPR; compounds 15 minutes prior to thallium sulfate; 10 point half log curves from 10 PM; read-out: hKCNK13 IC50
For `Nc1nonc1-c1nc2cc(F)cc(F)c2n1Cc1cccnn1` [Example 141, 4-(5,7-difluoro-1-(pyridazin-3-ylmethyl)-benzimidazol-2-yl)-1,2,5-oxadiazol-3-amine], the pIC50 was over 7.00.
`COc1ccc(Cn2c(-c3nonc3C)nc3cccnc32)cn1` [Example 16, 3-[3-[(6-methoxypyridin-3-yl)methyl]imidazo[4,5-b]pyridin-2-yl]-4-methyl-1,2,5-oxadiazole] gave a pIC50 of over 6.70.
For `COc1cc(Cn2c(-c3nonc3C)nc3ccccc32)ccn1` [Example 66, 3-[1-[(2-methoxypyridin-4-yl)methyl]benzimidazol-2-yl]-4-methyl-1,2,5-oxadiazole], the pIC50 was over 6.70.
`Cc1nonc1-c1nc2c(F)ccc(F)c2n1Cc1cccnc1` [Example 65, 3-[4,7-difluoro-1-(pyridin-3-ylmethyl)benzimidazol-2-yl]-4-methyl-1,2,5-oxadiazole] was tested, and the pIC50 was over 7.30.
`Nc1nonc1-c1nc2ccccc2n1Cc1ccnnc1` [Example 107, 4-[1-(pyridazin-4-ylmethyl)benzimidazol-2-yl]-1,2,5-oxadiazol-3-amine] showed a pIC50 of over 6.70.
For `Cc1nonc1-c1nc2cccc(F)c2n1Cc1ccc(C#N)nc1` [Example 52, 5-[[7-fluoro-2-(4-methyl-1,2,5-oxadiazol-3-yl)benzimidazol-1-yl]methyl]pyridine-2-carbonitrile], the pIC50 was over 7.00.
`Nc1nonc1-c1nc2cccc(F)c2n1Cc1ccnnc1` (single isomer, unassigned) [Example 132, 4-(7-fluoro-1-(pyridazin-4-ylmethyl)-benzimidazol-2-yl)-1,2,5-oxadiazol-3-amine] showed a pIC50 of over 7.30.
In the case of `Cc1nonc1-c1nc2c(F)cccc2n1Cc1cccnc1` (single isomer, unassigned) [Example 123, 3-[4-fluoro-1-(pyridin-3-ylmethyl)benzimidazol-2-yl]-4-methyl-1,2,5-oxadiazole], the pIC50 was over 7.30.
For `Cc1nonc1-c1nc2cccc(N)c2n1Cc1cccnc1` [Example 72, 2-(4-methyl-1,2,5-oxadiazol-3-yl)-3-(pyridin-3-ylmethyl)benzimidazol-4-amine], the pIC50 was over 6.30.
With `Cc1nonc1-c1nc2cccnc2n1Cc1ccc(C#N)nc1` [Example 50, 5-[[2-(4-methyl-1,2,5-oxadiazol-3-yl)imidazo[4,5-b]pyridin-3-yl]methyl]pyridine-2-carbonitrile] the pIC50 was over 7.00.
`C=Cc1nsnc1-c1nc2ccccc2n1Cc1cccnc1` [Example 89, 3-[1-(pyridin-3-ylmethyl)benzimidazol-2-yl]-4-vinyl-1,2,5-thiadiazole] was tested, and the pIC50 was over 7.30.
For `Cc1nonc1-c1nc2ccccc2n1Cc1ccc(C#N)nc1` [Example 37, 5-[[2-(4-methyl-1,2,5-oxadiazol-3-yl)benzimidazol-1-yl]methyl]pyridine-2-carbonitrile], the pIC50 was over 7.30.
`Cc1nonc1-c1nc2cccc(Cl)c2n1Cc1ccc(C#N)nc1` (single isomer, unassigned) [Example 62, 5-[[7-chloro-2-(4-methyl-1,2,5-oxadiazol-3-yl)benzimidazol-1-yl]methyl]pyridine-2-carbonitrile] was tested, and the pIC50 was over 6.70.
For `Nc1nonc1-c1nc2c(F)ccc(F)c2n1Cc1cccnn1` [Example 154, 4-(4,7-difluoro-1-(pyridazin-3-ylmethyl)-benzimidazol-2-yl)-1,2,5-oxadiazol-3-amine], the pIC50 was over 7.30.
Compound `Cc1cn(C)nc1-c1nc2ccccc2n1Cc1cccnc1` [Example 113, 2-(1,4-dimethylpyrazol-3-yl)-1-(pyridin-3-ylmethyl)benzimidazole] has a pIC50 of over 6.30.
`Cc1ccc(Cn2c(-c3nonc3N)nc3cccc(F)c32)nn1` (single isomer, unassigned) [Example 168, 4-(7-fluoro-1-((6-methylpyridazin-3-yl)methyl)-benzimidazol-2-yl)-1,2,5-oxadiazol-3-amine] gave a pIC50 of over 7.30.
With `Cc1nonc1-c1nc2c(F)ccc(F)c2n1Cc1cccnn1` [Example 185, 3-(4,7-difluoro-1-(pyridazin-3-ylmethyl)-benzimidazol-2-yl)-4-methyl-1,2,5-oxadiazole] the pIC50 was over 7.30.
`Cc1nsnc1-c1nc2c(F)cccc2n1Cc1cccnn1` [Example 140, 3-(4-fluoro-1-(pyridazin-3-ylmethyl)-benzimidazol-2-yl)-4-methyl-1,2,5-thiadiazole] was tested, and the pIC50 was over 6.30.
In the case of `Cc1nonc1-c1nc2cccc(F)c2n1Cc1cccnc1` (single isomer, unassigned) [Example 122, 3-[7-fluoro-1-(pyridin-3-ylmethyl)benzimidazol-2-yl]-4-methyl-1,2,5-oxadiazole], the pIC50 was over 7.30.
For `Cc1ccc(Cn2c(-c3nonc3C)nc3ccccc32)cn1` [Example 63, 3-methyl-4-[1-[(6-methylpyridin-3-yl)methyl]benzimidazol-2-yl]-1,2,5-oxadiazole], the pIC50 was over 6.70.
`Cc1nonc1-c1nc2c(F)cccc2n1Cc1ccc(S(C)(=O)=O)nc1` (single isomer, unassigned) [Example 138, 3-(4-fluoro-1-((6-(methylsulfonyl)pyridin-3-yl)methyl)-benzimidazol-2-yl)-4-methyl-1,2,5-oxadiazole] gave a pIC50 of over 6.00.
`Nc1nonc1-c1nc2cc(F)ccc2n1Cc1cncnc1` (single isomer, unassigned) [Example 5, 4-[5-fluoro-1-(pyrimidin-5-ylmethyl)benzimidazol-2-yl]-1,2,5-oxadiazol-3-amine] was tested, and the pIC50 was over 7.00.
`c1coc(-c2nc3ccccc3n2Cc2ccncc2)c1` [Example 117, 2-(furan-2-yl)-1-(pyridin-4-ylmethyl)benzimidazole] was tested, and the pIC50 was over 6.00.
With `CN(C)c1ccc2c(c1)nc(-c1nonc1N)n2Cc1cccnc1` [Example 34, 4-[5-(dimethylamino)-1-(pyridin-3-ylmethyl)benzimidazol-2-yl]-1,2,5-oxadiazol-3-amine] the pIC50 was over 6.00.
`Cc1nonc1-c1nc2c(F)cccc2n1Cc1cnc(C#N)cn1` [Example 42, 5-[[4-fluoro-2-(4-methyl-1,2,5-oxadiazol-3-yl)benzimidazol-1-yl]methyl]pyrazine-2-carbonitrile] gave a pIC50 of over 6.00.
For `Nc1nonc1-c1nc2cccc(F)c2n1Cc1cccnn1` [Example 6, 4-[7-fluoro-1-(pyridazin-3-ylmethyl)benzimidazol-2-yl]-1,2,5-oxadiazol-3-amine], the pIC50 was over 7.00.
`Cc1nonc1-c1nc2cccnc2n1Cc1cncnc1` [Example 13, 3-methyl-4-[3-(pyrimidin-5-ylmethyl)imidazo[4,5-b]pyridin-2-yl]-1,2,5-oxadiazole] showed a pIC50 of over 6.70.
Work on `Cc1snnc1-c1nc2c(F)cccc2n1Cc1cccnc1` (single isomer, unassigned) [Example 129, 4-[4-fluoro-1-(pyridin-3-ylmethyl)benzimidazol-2-yl]-5-methyl-1,2,3-thiadiazole] yielded a pIC50 of over 7.00.
Work on `Nc1nonc1-c1nc2c(F)cccc2n1Cc1ccc(Cl)nn1` (single isomer, unassigned) [Example 149, 4-(1-((6-chloropyridazin-3-yl)methyl)-4-fluoro-benzimidazol-2-yl)-1,2,5-oxadiazol-3-amine] yielded a pIC50 of over 7.00.
